# Test results from patent publication US9549932B2, “2-(morpholin-4-yl)-1,7-naphthyridines” (BAYER PHARMA AKTIENGESELLSCHAFT, priority 2014, dated 2017).
# Molecular target: full-length human ATR protein (Homo sapiens (Human), UniProt Q13535)
# Assay: Binding assay ATR (TR-FRET tracer displacement)
# Details: tracer A, TR-FRET; read-out: ATR binding (tracer A) IC50
# From the text: To determine of binding activity of the test compounds, full-length human ATR protein was expressed and purified together with ATRIP as described above. Furthermore, a fluorescently labelled compound (either tracer A or B as described above) was used as a tracer molecule. Detection of the binding event of the tracer was achieved by time-resolved fluorescence energy transfer (TR-FRET). We used an anti-GST-Terbium antibody (CisBio) that binds to the GST-tag at the N-terminus of ATR-kinase. […] Displacement of the fluorescent tracer by a test compound leads to a reduction of the TR-FRET-signal.
# For the assay 50 nl of a 100-fold concentrated solution of the test compound in DMSO was pipetted into a black low volume 384well microtiter plate (MTP, Greiner Bio-One, Frickenhausen, Germany). […] The ATR-working solution was incubated for 30 min at 22° C. prior to dispensing to pre-form the complex of antiGST-Tb+GST-ATR+ATRIP. Then, 3 μl of the ATR-working solution were added to the test compound and the mixture was incubated for 10 min at 22° C. to allow pre-binding of the test compounds to ATR/ATRIP. Then, 2 μl of a 100 nM solution of either tracer A or B in assay buffer were added to the ATR-working solution. The resulting mixture was incubated for 30 min at 22° C. […] The dilution series were prepared separately before the assay on the level of the 100 fold concentrated solutions in DMSO by serial 1:3.4 dilutions in duplicate values for each concentration. IC50 values were calculated by a 4 parameter fit using standard software (GraphPad prism or equivalent).
# Chain of full-length human ATR protein (Q13535 other isoform, or with tags, fused parts or gaps): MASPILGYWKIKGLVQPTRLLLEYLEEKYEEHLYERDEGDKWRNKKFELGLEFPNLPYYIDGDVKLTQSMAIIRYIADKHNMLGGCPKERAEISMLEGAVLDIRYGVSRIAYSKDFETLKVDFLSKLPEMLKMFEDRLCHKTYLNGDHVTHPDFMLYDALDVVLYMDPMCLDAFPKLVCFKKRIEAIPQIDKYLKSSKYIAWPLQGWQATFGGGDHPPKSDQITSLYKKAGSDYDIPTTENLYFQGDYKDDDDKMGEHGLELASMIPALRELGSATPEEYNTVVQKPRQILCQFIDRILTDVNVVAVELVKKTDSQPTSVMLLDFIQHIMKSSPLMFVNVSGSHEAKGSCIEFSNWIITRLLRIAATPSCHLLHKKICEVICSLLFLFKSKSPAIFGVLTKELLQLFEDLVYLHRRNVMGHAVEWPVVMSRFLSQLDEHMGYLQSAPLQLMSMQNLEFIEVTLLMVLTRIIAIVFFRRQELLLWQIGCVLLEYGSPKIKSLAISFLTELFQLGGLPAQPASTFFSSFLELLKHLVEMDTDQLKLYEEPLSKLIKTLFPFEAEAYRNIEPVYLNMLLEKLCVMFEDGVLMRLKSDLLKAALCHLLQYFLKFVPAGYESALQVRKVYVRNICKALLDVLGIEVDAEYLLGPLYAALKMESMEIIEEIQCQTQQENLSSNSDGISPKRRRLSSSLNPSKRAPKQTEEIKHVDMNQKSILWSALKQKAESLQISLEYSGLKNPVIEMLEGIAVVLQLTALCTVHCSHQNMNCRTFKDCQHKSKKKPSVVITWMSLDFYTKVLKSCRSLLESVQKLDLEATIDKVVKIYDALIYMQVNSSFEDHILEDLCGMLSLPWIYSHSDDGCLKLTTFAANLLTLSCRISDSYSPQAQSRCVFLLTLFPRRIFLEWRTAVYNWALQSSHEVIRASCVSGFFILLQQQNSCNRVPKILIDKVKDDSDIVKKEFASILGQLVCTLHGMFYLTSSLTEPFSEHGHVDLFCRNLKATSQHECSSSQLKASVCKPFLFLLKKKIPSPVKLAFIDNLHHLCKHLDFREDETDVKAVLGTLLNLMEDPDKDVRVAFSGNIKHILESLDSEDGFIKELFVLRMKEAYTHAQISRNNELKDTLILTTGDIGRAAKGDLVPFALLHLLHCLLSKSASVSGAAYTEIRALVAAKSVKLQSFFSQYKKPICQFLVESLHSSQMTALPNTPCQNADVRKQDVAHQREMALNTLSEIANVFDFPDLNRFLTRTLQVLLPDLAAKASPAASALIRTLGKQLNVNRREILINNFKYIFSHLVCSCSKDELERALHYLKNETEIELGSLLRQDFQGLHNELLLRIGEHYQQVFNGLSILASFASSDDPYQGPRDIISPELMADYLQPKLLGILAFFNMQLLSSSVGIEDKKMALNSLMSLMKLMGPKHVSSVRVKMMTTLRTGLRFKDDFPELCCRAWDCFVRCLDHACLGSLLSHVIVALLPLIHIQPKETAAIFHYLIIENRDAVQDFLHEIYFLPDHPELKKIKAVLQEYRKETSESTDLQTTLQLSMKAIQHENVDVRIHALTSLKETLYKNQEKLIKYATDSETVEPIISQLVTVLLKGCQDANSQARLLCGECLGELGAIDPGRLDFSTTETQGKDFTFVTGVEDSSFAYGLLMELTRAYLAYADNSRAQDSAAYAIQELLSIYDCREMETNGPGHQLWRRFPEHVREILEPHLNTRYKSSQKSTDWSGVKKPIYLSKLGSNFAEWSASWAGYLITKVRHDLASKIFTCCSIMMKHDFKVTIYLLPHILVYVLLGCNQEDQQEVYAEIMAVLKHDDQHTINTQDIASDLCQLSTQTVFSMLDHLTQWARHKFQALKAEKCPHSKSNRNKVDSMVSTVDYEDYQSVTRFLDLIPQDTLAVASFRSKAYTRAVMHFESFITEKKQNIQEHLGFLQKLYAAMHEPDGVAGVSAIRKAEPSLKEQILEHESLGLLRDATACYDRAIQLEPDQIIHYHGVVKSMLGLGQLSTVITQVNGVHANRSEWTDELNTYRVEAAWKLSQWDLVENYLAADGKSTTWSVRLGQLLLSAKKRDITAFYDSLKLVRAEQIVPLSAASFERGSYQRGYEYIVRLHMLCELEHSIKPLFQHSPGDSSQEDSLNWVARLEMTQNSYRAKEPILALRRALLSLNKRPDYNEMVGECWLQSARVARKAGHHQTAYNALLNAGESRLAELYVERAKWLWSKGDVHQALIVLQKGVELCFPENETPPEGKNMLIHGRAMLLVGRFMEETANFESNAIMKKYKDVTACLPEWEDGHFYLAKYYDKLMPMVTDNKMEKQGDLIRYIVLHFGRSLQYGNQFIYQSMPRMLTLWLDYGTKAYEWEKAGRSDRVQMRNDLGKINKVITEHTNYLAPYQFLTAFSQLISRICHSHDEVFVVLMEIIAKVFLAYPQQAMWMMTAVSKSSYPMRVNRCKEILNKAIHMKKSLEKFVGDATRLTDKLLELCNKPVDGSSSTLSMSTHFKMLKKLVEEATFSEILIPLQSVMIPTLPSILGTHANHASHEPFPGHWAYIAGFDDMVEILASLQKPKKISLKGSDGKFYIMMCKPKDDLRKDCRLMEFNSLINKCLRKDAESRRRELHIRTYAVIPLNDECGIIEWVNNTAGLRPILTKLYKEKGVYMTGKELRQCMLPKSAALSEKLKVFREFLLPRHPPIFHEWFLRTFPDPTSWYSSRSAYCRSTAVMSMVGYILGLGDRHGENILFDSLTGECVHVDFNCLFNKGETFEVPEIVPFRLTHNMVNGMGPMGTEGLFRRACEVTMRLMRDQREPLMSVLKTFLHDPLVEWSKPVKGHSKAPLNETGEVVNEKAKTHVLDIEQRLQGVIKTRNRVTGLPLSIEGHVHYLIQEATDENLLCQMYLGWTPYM
# Chain of full-length human ATR protein (Q8WXE1 other isoform, or with tags, fused parts or gaps partner): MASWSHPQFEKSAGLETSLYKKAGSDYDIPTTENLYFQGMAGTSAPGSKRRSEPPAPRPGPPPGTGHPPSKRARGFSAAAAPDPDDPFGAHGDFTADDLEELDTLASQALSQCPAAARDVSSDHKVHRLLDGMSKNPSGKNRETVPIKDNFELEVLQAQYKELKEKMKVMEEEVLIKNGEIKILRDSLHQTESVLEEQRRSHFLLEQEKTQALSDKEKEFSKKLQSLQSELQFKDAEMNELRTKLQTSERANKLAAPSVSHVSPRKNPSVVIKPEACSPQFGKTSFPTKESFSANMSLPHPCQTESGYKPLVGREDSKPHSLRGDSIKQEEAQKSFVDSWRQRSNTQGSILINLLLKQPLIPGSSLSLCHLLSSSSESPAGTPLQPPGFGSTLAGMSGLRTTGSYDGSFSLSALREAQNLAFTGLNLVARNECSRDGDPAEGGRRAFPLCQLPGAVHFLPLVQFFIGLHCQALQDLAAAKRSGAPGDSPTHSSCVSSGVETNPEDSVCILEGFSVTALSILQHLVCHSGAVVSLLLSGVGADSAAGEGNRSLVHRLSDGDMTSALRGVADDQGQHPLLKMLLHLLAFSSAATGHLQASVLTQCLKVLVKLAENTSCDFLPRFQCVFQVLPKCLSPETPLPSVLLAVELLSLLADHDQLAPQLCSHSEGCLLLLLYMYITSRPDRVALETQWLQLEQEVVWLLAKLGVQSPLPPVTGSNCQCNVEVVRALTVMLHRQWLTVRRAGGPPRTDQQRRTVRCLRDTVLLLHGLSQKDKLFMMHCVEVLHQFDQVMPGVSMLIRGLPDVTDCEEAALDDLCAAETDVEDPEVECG
row,Structure (SMILES),IC50 [nM]
1,"C[C@@H]1COCCN1c1cc(N=S2(=O)CCOCC2)c2ccnc(-c3ccn[nH]3)c2n1 [Example 64, N-{2-[(3R)-3-methylmorpholin-4-yl]-8-(1H-pyrazol-5-yl)-1,7-naphthyridin-4-yl}-1,4λ^4-oxathian-4-imine 4-oxide]",27.4
2,"CS(C)(=O)=Nc1cc(N2CCOCC2)nc2c(-c3ccn[nH]3)nccc12 [Example 65, 4-{[dimethyl(oxido)-λ^6-sulfanylidene]amino}-2-(morpholin-4-yl)-8-(1H-pyrazol-5-yl)-1,7-naphthyridine]",335
3,"C[C@@H]1COCCN1c1cc(N2CCNCC2)c2ccnc(-c3ccn[nH]3)c2n1 [Example 66, 2-[(3R)-3-methylmorpholin-4-yl]-4-(piperazin-1-yl)-8-(1H-pyrazol-5-yl)-1,7-naphthyridine]",87.2
4,"CC(C)Oc1cc(N2CCOC[C@@H]2C)nc2c(-c3cc[nH]n3)nccc12 [Example 67, 4-isopropoxy-2-((S)-3-methylmorpholin-4-yl)-8-(1H-pyrazol-3-yl)-[1,7]naphthyridine]",1000
5,"CC(C)Oc1cc(N2CCOCC2)nc2c(-c3cc[nH]c3)nccc12 [Example 68, 2-(morpholin-4-yl)-4-(propan-2-yloxy)-8-(1H-pyrrol-3-yl)-1,7-naphthyridine]",589
6,"CCn1nccc1-c1cc(N2CCOC[C@H]2C)nc2c(-c3ccn[nH]3)nccc12 [Example 69, 4-(1-ethyl-1H-pyrazol-5-yl)-2-[(3R)-3-methylmorpholin-4-yl]-8-(1H-pyrazol-5-yl)-1,7-naphthyridine]",5.34
7,"C[C@@H]1COCCN1c1cc(-c2cncn2C)c2ccnc(-c3ccn[nH]3)c2n1 [Example 70, 4-(1-methyl-1H-imidazol-5-yl)-2-[(3R)-3-methylmorpholin-4-yl]-8-(1H-pyrazol-5-yl)-1,7-naphthyridine]",5.17
8,"C[C@@H]1COCCN1c1cc(-c2ccccc2N)c2ccnc(-c3ccn[nH]3)c2n1 [Example 71, 2-{2-[(3R)-3-methylmorpholin-4-yl]-8-(1H-pyrazol-5-yl)-1,7-naphthyridin-4-yl]aniline]",5.65
9,"C[C@@H]1COCCN1c1cc(-c2cccc(F)c2F)c2ccnc(-c3ccn[nH]3)c2n1 [Example 72, 4-(2,3-difluorophenyl)-2-[(3R)-3-methylmorpholin-4-yl]-8-(1H-pyrazol-5-yl)-1,7-naphthyridine]",6.33
10,"Cc1nc(S(C)(=O)=O)ccc1-c1cc(N2CCOC[C@H]2C)nc2c(-c3ccn[nH]3)nccc12 [Example 73, 4-[2-methyl-6-(methylsulfonyl)pyridin-3-yl]-2-[(3R)-3-methylmorpholin-4-yl]-8-(1H-pyrazol-5-yl)-1,7-naphthyridine]",6.71
11,"C[C@@H]1COCCN1c1cc(-c2ccc(S(C)(=O)=O)cc2F)c2ccnc(-c3ccn[nH]3)c2n1 [Example 74, 4-[2-fluoro-4-(methylsulfonyl)phenyl]-2-[(3R)-3-methylmorpholin-4-yl]-8-(1H-pyrazol-5-yl)-1,7-naphthyridine]",7.1
12,"C[C@@H]1COCCN1c1cc(-c2cc(F)ccc2N)c2ccnc(-c3ccn[nH]3)c2n1 [Example 75, 4-fluoro-2-[2-[(3R)-3-methylmorpholin-4-yl]-8-(1H-pyrazol-5-yl)-1,7-naphthyridin-4-yl]aniline]",6.97
13,"C[C@@H]1COCCN1c1cc(-c2cncn2Cc2ccccc2)c2ccnc(-c3ccn[nH]3)c2n1 [Example 76, 4-(1-benzyl-1H-imidazol-5-yl)-2-[(3R)-3-methylmorpholin-4-yl]-8-(1H-pyrazol-5-yl)-1,7-naphthyridine]",8.91
14,"C[C@@H]1COCCN1c1cc(-c2ccccc2F)c2ccnc(-c3ccn[nH]3)c2n1 [Example 77, 4-(2-fluorophenyl)-2-[(3R)-3-methylmorpholin-4-yl]-8-(1H-pyrazol-5-yl)-1,7-naphthyridine]",8.92
15,"Cc1ncc(-c2cc(N3CCOC[C@H]3C)nc3c(-c4ccn[nH]4)nccc23)s1 [Example 78, 2-[(3R)-3-methylmorpholin-4-yl]-4-(2-methyl-1,3-thiazol-5-yl)-8-(1H-pyrazol-5-yl)-1,7-naphthyridine]",11
16,"Cc1cc(S(C)(=O)=O)ncc1-c1cc(N2CCOC[C@H]2C)nc2c(-c3ccn[nH]3)nccc12 [Example 79, 4-[4-methyl-6-(methylsulfonyl)pyridin-3-yl]-2-[(3R)-3-methylmorpholin-4-yl]-8-(1H-pyrazol-5-yl)-1,7-naphthyridine]",12

row,Structure (SMILES),IC50 [nM]
1,"C[C@@H]1COCCN1c1cc(-c2ccnn2C2CC2)c2ccnc(-c3ccn[nH]3)c2n1 [Example 80, 4-(1-cyclopropyl-1H-pyrazol-5-yl)-2-[(3R)-3-methylmorpholin-4-yl]-8-(1H-pyrazol-5-yl)-1,7-naphthyridine]",12.1
2,"C[C@@H]1COCCN1c1cc(-c2ccc(N3CCNCC3)cc2F)c2ccnc(-c3ccn[nH]3)c2n1 [Example 81, 4-[2-fluoro-4-(piperazin-1-yl)phenyl]-2-[(3R)-3-methylmorpholin-4-yl]-8-(1H-pyrazol-5-yl)-1,7-naphthyridine]",14.3
3,"C[C@@H]1COCCN1c1cc(N2CCN(S(C)(=O)=O)CC2)c2ccnc(-c3ccn[nH]3)c2n1 [Example 82, 2-[(3R)-3-methylmorpholin-4-yl]-4-[4-(methylsulfonyl)piperazin-1-yl]-8-(1H-pyrazol-5-yl)-1,7-naphthyridine]",4.9
4,"C[C@@H]1COCCN1c1cc(N(C)CC(C)(C)C)c2ccnc(-c3ccn[nH]3)c2n1 [Example 83, N-(2,2-dimethylpropyl)-N-methyl-2-[(3R)-3-methylmorpholin-4-yl]-8-(1H-pyrazol-5-yl)-1,7-naphthyridin-4-amine]",5.38
5,"C[C@@H]1COCCN1c1cc(N2CCC(CO)CC2)c2ccnc(-c3ccn[nH]3)c2n1 [Example 84, (1-{2-[(3R)-3-methylmorpholin-4-yl]-8-(1H-pyrazol-5-yl)-1,7-naphthyridin-4-yl}piperidin-4-yl)methanol]",6.6
6,"C[C@@H]1COCCN1c1cc(N(C)C2CC2)c2ccnc(-c3ccn[nH]3)c2n1 [Example 85, N-cyclopropyl-N-methyl-2-[(3R)-3-methylmorpholin-4-yl]-8-(1H-pyrazol-5-yl)-1,7-naphthyridin-4-amine]",11.9
7,"C[C@@H]1COCCN1c1cc(N2CCn3ccnc3C2)c2ccnc(-c3ccn[nH]3)c2n1 [Example 86, 4-(5,6-dihydroimidazo[1,2-a]pyrazin-7(8H)-yl)-2-[(3R)-3-methylmorpholin-4-yl]-8-(1H-pyrazol-5-yl)-1,7-naphthyridine]",10.9
8,"C[C@@H]1COCCN1c1cc(N(C)c2ccc(F)cc2)c2ccnc(-c3ccn[nH]3)c2n1 [Example 87, N-(4-fluorophenyl)-N-methyl-2-[(3R)-3-methylmorpholin-4-yl]-8-(1H-pyrazol-5-yl)-1,7-naphthyridin-4-amine]",8.71
9,"Cc1ccc(-c2cc(N3CCOC[C@H]3C)nc3c(-c4ccn[nH]4)nccc23)cn1 [Example 88, 2-[(3R)-3-methylmorpholin-4-yl]-4-(6-methylpyridin-3-yl)-8-(1H-pyrazol-5-yl)-1,7-naphthyridine]",15.3
10,"C[C@@H]1COCCN1c1cc(-c2cccnc2F)c2ccnc(-c3ccn[nH]3)c2n1 [Example 89, 4-(2-fluoropyridin-3-yl)-2-[(3R)-3-methylmorpholin-4-yl]-8-(1H-pyrazol-5-yl)-1,7-naphthyridine]",8.11
11,"Cc1ccnc(F)c1-c1cc(N2CCOC[C@H]2C)nc2c(-c3ccn[nH]3)nccc12 [Example 90, 4-(2-fluoro-4-methylpyridin-3-yl)-2-[(3R)-3-methylmorpholin-4-yl]-8-(1H-pyrazol-5-yl)-1,7-naphthyridine]",10.6
12,"C[C@@H]1COCCN1c1cc(-c2cccn2C)c2ccnc(-c3ccn[nH]3)c2n1 [Example 91, 2-[(3R)-3-methylmorpholin-4-yl]-4-(1-methyl-1H-pyrrol-2-yl)-8-(1H-pyrazol-5-yl)-1,7-naphthyridine]",10
13,"Cc1ccc(-c2cc(N3CCOC[C@H]3C)nc3c(-c4ccn[nH]4)nccc23)c(F)n1 [Example 93, 4-(2-fluoro-6-methylpyridin-3-yl)-2-[(3R)-3-methylmorpholin-4-yl]-8-(1H-pyrazol-5-yl)-1,7-naphthyridine]",10.9
14,"COc1ccc(-c2cc(N3CCOC[C@H]3C)nc3c(-c4ccn[nH]4)nccc23)cn1 [Example 95, 4-(6-methoxypyridin-3-yl)-2-[(3R)-3-methylmorpholin-4-yl]-8-(1H-pyrazol-5-yl)-1,7-naphthyridine]",11.3
15,"COc1ncc(-c2cc(N3CCOC[C@H]3C)nc3c(-c4ccn[nH]4)nccc23)cc1C [Example 96, 4-(6-methoxy-5-methylpyridin-3-yl)-2-[(3R)-3-methylmorpholin-4-yl]-8-(1H-pyrazol-5-yl)-1,7-naphthyridine]",12.7
16,"Cc1nc(F)ccc1-c1cc(N2CCOC[C@H]2C)nc2c(-c3ccn[nH]3)nccc12 [Example 97, 4-(6-fluoro-2-methylpyridin-3-yl)-2-[(3R)-3-methylmorpholin-4-yl]-8-(1H-pyrazol-5-yl)-1,7-naphthyridine]",13.9

# Same assay, conditions: tracer B, TR-FRET; read-out: ATR binding (tracer B) IC50
row,Structure (SMILES),IC50 [nM]
1,"CS(C)(=O)=Nc1cc(N2CCOCC2)nc2c(-c3ccn[nH]3)nccc12 [Example 65, 4-{[dimethyl(oxido)-λ^6-sulfanylidene]amino}-2-(morpholin-4-yl)-8-(1H-pyrazol-5-yl)-1,7-naphthyridine]",276
2,"CC(C)Oc1cc(N2CCOC[C@@H]2C)nc2c(-c3cc[nH]n3)nccc12 [Example 67, 4-isopropoxy-2-((S)-3-methylmorpholin-4-yl)-8-(1H-pyrazol-3-yl)-[1,7]naphthyridine]",1270
3,"CC(C)Oc1cc(N2CCOCC2)nc2c(-c3cc[nH]c3)nccc12 [Example 68, 2-(morpholin-4-yl)-4-(propan-2-yloxy)-8-(1H-pyrrol-3-yl)-1,7-naphthyridine]",472
